According to PubChem BioAssay (NCI):
“And” between values parts separate entries of the source, which are not always exact repeats. Equal entries are not always repeated.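 Tested at 5 concentrations; 48 h exposure; 96-well plates; endpoints linearly interpolated, else capped at highest concentration. The concentration for 50% growth inhibition is given as GI50. TGI: total growth inhibition.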

The molecules below were run on NCI-H460 lung (assay: inhibition of tumour cell growth, NCI panel, 48 h).

Row | SMILES | GI50 [µM] | TGI
1 | O=C(NNc1ccccc1)C(=O)NNc1ccccc1 | 3.47 | > 100 µM
2 | Nc1c(C(=O)c2ccccc2)cnn1-c1ccc(F)cc1 | > 25 | > 25 µM
3 | COC(=O)c1ccc(-c2c(C#N)[n+](=O)c3cc(Cl)c(Cl)cc3n2[O-])cc1 | 18.6 | 44.7 µM
4 | C#Cc1nc(Nc2cc(C)[nH]n2)c2ccccc2n1 | 0.346 | 1.43 µM
5 | C/C(=N\NC(=S)N1CCCCCC1)c1ccccn1 | 0.0421 | 1.47 µM and 2.22 µM
6 | CC(C)=CCc1cc2c(cc1O)OC[C@H]1c3cc4c(cc3O[C@@H]21)OCO4 | – | 44.5 µM
7 | COc1cc2c3c(c1OC)-c1cc4c(cc1CC3(C#N)N(C(=O)c1ccccc1)CC2)OCO4 (stereo not drawn) | – | > 100 µM
8 | CCOC(=O)c1c(-c2ccc(OC)cc2)c(C#N)c2c(C#N)c(N)nn2c1N | 3.67 | 30.9 µM
9 | COC(=O)C1=CN(CC2=CC(=O)C(C)=CC2=O)C=C(C(=O)OC)C1c1cccc(OC)c1 | 14.3 | 49.7 µM
10 | COc1ccc(Cn2c(N)c(S(=O)(=O)c3ccc(Cl)cc3)c3nc(C#N)c(C#N)nc32)cc1 | 2.94 | > 50 µM

The molecules below were run on RXF 393 renal (assay: inhibition of tumour cell growth, NCI panel, 48 h).

Row | SMILES | GI50 [µM] | TGI
11 | O=C(NNc1ccccc1)C(=O)NNc1ccccc1 | > 100 | > 100 µM
12 | Nc1c(C(=O)c2ccccc2)cnn1-c1ccc(F)cc1 | > 25 | > 25 µM
13 | COC(=O)c1ccc(-c2c(C#N)[n+](=O)c3cc(Cl)c(Cl)cc3n2[O-])cc1 | 12.1 | 28 µM
14 | C#Cc1nc(Nc2cc(C)[nH]n2)c2ccccc2n1 | 0.136 | 0.301 µM
15 | C/C(=N\NC(=S)N1CCCCCC1)c1ccccn1 | 0.117 | 2.05 µM and 0.658 µM
16 | CC(C)=CCc1cc2c(cc1O)OC[C@H]1c3cc4c(cc3O[C@@H]21)OCO4 | – | 48.7 µM
17 | COc1cc2c3c(c1OC)-c1cc4c(cc1CC3(C#N)N(C(=O)c1ccccc1)CC2)OCO4 (stereo not drawn) | – | 26.9 µM
18 | CCOC(=O)c1c(-c2ccc(OC)cc2)c(C#N)c2c(C#N)c(N)nn2c1N | 2.25 | 11.5 µM
19 | COC(=O)C1=CN(CC2=CC(=O)C(C)=CC2=O)C=C(C(=O)OC)C1c1cccc(OC)c1 | 17.4 | 39.8 µM
20 | COc1ccc(Cn2c(N)c(S(=O)(=O)c3ccc(Cl)cc3)c3nc(C#N)c(C#N)nc32)cc1 | 1.45 | 5.37 µM

These molecules were tested on SF-539 CNS (assay: inhibition of tumour cell growth, NCI panel, 48 h).

Row | SMILES | GI50 [µM] | TGI
21 | O=C(NNc1ccccc1)C(=O)NNc1ccccc1 | 2.63 | 14.5 µM
22 | Nc1c(C(=O)c2ccccc2)cnn1-c1ccc(F)cc1 | > 25 | > 25 µM
23 | COC(=O)c1ccc(-c2c(C#N)[n+](=O)c3cc(Cl)c(Cl)cc3n2[O-])cc1 | 19.7 | 40.5 µM
24 | C#Cc1nc(Nc2cc(C)[nH]n2)c2ccccc2n1 | 0.189 | 0.451 µM
25 | C/C(=N\NC(=S)N1CCCCCC1)c1ccccn1 | 0.143 | 1.74 µM and 2.26 µM
26 | CC(C)=CCc1cc2c(cc1O)OC[C@H]1c3cc4c(cc3O[C@@H]21)OCO4 | – | > 100 µM
27 | COc1cc2c3c(c1OC)-c1cc4c(cc1CC3(C#N)N(C(=O)c1ccccc1)CC2)OCO4 (stereo not drawn) | – | 54.7 µM
28 | CCOC(=O)c1c(-c2ccc(OC)cc2)c(C#N)c2c(C#N)c(N)nn2c1N | 2.39 | 8.6 µM
29 | COC(=O)C1=CN(CC2=CC(=O)C(C)=CC2=O)C=C(C(=O)OC)C1c1cccc(OC)c1 | 8.25 | 23.3 µM
30 | COc1ccc(Cn2c(N)c(S(=O)(=O)c3ccc(Cl)cc3)c3nc(C#N)c(C#N)nc32)cc1 | > 50 | > 50 µM

What follows are molecules tested on SK-MEL-28 melanoma (assay: inhibition of tumour cell growth, NCI panel, 48 h).

Row | SMILES | GI50 [µM] | TGI [µM]
31 | O=C(NNc1ccccc1)C(=O)NNc1ccccc1 | 58.1 | > 100
32 | Nc1c(C(=O)c2ccccc2)cnn1-c1ccc(F)cc1 | > 25 | > 25
33 | COC(=O)c1ccc(-c2c(C#N)[n+](=O)c3cc(Cl)c(Cl)cc3n2[O-])cc1 | 17.2 | 34.8
34 | C#Cc1nc(Nc2cc(C)[nH]n2)c2ccccc2n1 | 0.363 | 1.71
35 | C/C(=N\NC(=S)N1CCCCCC1)c1ccccn1 | – | 0.295
36 | CC(C)=CCc1cc2c(cc1O)OC[C@H]1c3cc4c(cc3O[C@@H]21)OCO4 | – | > 100
37 | COc1cc2c3c(c1OC)-c1cc4c(cc1CC3(C#N)N(C(=O)c1ccccc1)CC2)OCO4 (stereo not drawn) | – | > 100
38 | CCOC(=O)c1c(-c2ccc(OC)cc2)c(C#N)c2c(C#N)c(N)nn2c1N | 5.41 | > 100
39 | COC(=O)C1=CN(CC2=CC(=O)C(C)=CC2=O)C=C(C(=O)OC)C1c1cccc(OC)c1 | 25 | 79
40 | COc1ccc(Cn2c(N)c(S(=O)(=O)c3ccc(Cl)cc3)c3nc(C#N)c(C#N)nc32)cc1 | > 50 | > 50

What follows are molecules tested on T-47D breast (assay: inhibition of tumour cell growth, NCI panel, 48 h).

Row | SMILES | GI50 [µM] | TGI
41 | O=C(NNc1ccccc1)C(=O)NNc1ccccc1 | 0.52 | > 100 µM
42 | Nc1c(C(=O)c2ccccc2)cnn1-c1ccc(F)cc1 | > 25 | > 25 µM
43 | COC(=O)c1ccc(-c2c(C#N)[n+](=O)c3cc(Cl)c(Cl)cc3n2[O-])cc1 | 2.48 | 6.08 µM
44 | C#Cc1nc(Nc2cc(C)[nH]n2)c2ccccc2n1 | 0.39 | 2.11 µM
45 | C/C(=N\NC(=S)N1CCCCCC1)c1ccccn1 | – | 8.43 µM and 7.58 µM
46 | CC(C)=CCc1cc2c(cc1O)OC[C@H]1c3cc4c(cc3O[C@@H]21)OCO4 | – | > 100 µM
47 | COc1cc2c3c(c1OC)-c1cc4c(cc1CC3(C#N)N(C(=O)c1ccccc1)CC2)OCO4 (stereo not drawn) | – | > 100 µM
48 | CCOC(=O)c1c(-c2ccc(OC)cc2)c(C#N)c2c(C#N)c(N)nn2c1N | 2.93 | 33.1 µM
49 | COC(=O)C1=CN(CC2=CC(=O)C(C)=CC2=O)C=C(C(=O)OC)C1c1cccc(OC)c1 | 8.26 | > 100 µM
50 | COc1ccc(Cn2c(N)c(S(=O)(=O)c3ccc(Cl)cc3)c3nc(C#N)c(C#N)nc32)cc1 | > 50 | > 50 µM
